These results are taken from ChEMBL document CHEMBL5725391, “1,3-diaminocyclopentane carboxamide derivatives” (2017).

The target of the test is Fatty acid synthase (Homo sapiens, UniProt P49327). Kind of test: Biochemical Assay of FASN: The biochemical FASN activity testing was performed as 384 well two-time-point kinetic fluorescence intensity assay format in Greiner low volume medium binding 384-well black microtiter plates in a total assay volume of 8 μl and was used for high throughput screen. In each well 3 μl 40 nM human recombinant full-length fatty acid synthase (produced in-house in SF9 cells) were dispensed in the following assay buffer: 50 mM potassium phosphate buffer pH 7.0, 0.005% (w/v) BSA, 2 mM Glutathione, 0.02% Tween-20. Then 2 μl of 200 μM NADPH in assay buffer were added, followed by the addition of the test compounds in 10 dilution concentrations starting with 30 μM (final concentration) to get a final DMSO content of 1% (v/v). The mixture was incubated for at least 15 min at room temperature. After the pre-incubation the enzymatic reaction was started by the addition of 2 μl substrate solution (80 μM acetyl-CoA, 240 μM malonyl-CoA). A first fluorescence intensity measurement (time point one) was performed with an Envision multimode reader (Perkin Elmer LAS Germany GmbH) at excitation wavelength 340 nm (lamp mode) and emission wavelength 460 nm. The reaction was incubated for 30 minutes at room temperature. After this the fluorescence intensity was measured again in the Envision using the same parameters as described above (second time point measurement). The data were analysed by subtracting the first time point measurement value from the second time point measurement value (after the enzymatic reaction). The differences of the emission signals were determined. These reflect directly the conversion rate of NADPH. The full value used was the inhibitor-free reaction. A pharmacological zero value was used like GSK837149A (Sigma-Aldrich) in a final concentration of 5-10 μM. The inhibitory values (IC50) were determined using either the program Symyx Assay Explorer® or Condosseo® from GeneData.
Sequence of Fatty acid synthase (P49327 whole entry): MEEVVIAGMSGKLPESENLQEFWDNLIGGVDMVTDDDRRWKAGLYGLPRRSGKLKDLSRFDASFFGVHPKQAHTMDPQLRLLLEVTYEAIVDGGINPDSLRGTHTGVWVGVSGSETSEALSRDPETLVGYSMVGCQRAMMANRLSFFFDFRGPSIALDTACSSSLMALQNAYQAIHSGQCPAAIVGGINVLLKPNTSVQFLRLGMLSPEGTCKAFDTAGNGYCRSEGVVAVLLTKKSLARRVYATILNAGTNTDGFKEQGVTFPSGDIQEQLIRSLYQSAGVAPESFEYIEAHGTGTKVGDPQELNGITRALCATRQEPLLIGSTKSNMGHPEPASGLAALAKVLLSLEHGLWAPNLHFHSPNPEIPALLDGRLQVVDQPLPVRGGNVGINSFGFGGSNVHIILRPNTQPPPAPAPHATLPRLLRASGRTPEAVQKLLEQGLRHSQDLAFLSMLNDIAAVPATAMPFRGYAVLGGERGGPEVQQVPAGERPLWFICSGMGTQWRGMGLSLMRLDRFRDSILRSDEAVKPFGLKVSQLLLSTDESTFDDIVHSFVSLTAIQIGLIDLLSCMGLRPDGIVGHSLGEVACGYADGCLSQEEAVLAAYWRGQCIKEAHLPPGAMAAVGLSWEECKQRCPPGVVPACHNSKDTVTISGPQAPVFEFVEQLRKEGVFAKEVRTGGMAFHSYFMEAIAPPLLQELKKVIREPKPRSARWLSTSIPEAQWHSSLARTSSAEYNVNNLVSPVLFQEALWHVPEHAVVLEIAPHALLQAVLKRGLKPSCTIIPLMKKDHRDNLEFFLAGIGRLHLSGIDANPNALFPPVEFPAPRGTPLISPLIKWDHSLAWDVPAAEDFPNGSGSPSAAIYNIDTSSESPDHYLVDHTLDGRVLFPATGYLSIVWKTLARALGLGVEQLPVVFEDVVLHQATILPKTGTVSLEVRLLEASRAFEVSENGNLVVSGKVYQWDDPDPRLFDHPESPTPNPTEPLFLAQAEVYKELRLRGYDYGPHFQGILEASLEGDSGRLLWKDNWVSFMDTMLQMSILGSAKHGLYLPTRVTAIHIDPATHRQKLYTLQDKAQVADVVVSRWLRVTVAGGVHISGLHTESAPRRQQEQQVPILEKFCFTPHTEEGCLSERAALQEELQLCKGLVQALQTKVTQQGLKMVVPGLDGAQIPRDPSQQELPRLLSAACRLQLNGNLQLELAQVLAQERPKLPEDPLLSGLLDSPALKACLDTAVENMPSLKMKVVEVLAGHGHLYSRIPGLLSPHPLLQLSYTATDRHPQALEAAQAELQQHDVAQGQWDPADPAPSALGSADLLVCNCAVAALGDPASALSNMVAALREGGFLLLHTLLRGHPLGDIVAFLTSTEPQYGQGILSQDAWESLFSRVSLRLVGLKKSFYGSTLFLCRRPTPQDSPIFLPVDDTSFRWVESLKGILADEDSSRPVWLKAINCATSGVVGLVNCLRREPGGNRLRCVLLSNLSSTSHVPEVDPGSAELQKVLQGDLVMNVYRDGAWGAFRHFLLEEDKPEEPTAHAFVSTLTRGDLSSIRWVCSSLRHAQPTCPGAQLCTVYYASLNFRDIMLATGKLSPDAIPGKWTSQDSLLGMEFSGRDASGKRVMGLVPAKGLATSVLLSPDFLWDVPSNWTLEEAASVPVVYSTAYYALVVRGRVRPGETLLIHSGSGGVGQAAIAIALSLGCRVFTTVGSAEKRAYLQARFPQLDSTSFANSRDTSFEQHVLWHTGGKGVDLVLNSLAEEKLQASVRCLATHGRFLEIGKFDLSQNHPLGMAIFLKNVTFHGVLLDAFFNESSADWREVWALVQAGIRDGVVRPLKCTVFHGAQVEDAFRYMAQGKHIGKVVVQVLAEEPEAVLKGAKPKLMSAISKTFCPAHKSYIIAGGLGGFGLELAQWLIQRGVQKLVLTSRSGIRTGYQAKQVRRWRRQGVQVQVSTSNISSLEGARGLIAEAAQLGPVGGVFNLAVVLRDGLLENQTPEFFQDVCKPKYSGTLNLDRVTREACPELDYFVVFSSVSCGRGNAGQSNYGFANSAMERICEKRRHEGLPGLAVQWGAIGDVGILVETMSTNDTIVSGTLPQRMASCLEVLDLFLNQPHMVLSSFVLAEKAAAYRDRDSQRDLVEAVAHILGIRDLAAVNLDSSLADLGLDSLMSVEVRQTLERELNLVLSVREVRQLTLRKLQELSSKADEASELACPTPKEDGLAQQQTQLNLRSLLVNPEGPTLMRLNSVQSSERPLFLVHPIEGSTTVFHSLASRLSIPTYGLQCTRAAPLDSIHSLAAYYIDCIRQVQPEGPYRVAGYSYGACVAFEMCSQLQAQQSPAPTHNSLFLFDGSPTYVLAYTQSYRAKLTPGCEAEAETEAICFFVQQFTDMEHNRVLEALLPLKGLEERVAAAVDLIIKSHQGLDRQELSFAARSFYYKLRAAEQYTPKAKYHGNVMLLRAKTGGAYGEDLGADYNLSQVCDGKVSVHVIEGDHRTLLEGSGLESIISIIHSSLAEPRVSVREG
A word on the IC50: it is the concentration needed to halve the response being measured. Take `CCC(=O)N[C@H]1CC[C@@H](N(C)C(=O)c2ccc(-c3cc(F)c4[nH]cc(C(N)=O)c4c3)cc2)C1`: the IC50 is under 0.3 µM.

In the case of `CN(C(=O)c1ccc(-c2nc3ccccc3o2)cc1F)[C@@H]1CC[C@H](NC(=O)[C@@H]2CCCO2)C1`, the IC50 is under 0.3 µM.

On to `CCC(=O)N[C@H]1CC[C@@H](N(C)C(=O)c2cnc(-c3ccc4[nH]ccc4c3)s2)C1`, for which the IC50 is under 0.3 µM.

Turning to `CCC(=O)N[C@H]1CC[C@@H](N(C)C(=O)c2sc(-c3ccc4[nH]ccc4c3)nc2C)C1`, the IC50 was under 0.3 µM.

As to `CCC(=O)N[C@H]1CC[C@@H](N(C)C(=O)c2ccc(-c3ccc4[nH]cc(F)c4c3)nc2)C1`, the IC50 was under 0.3 µM.

Regarding `CCC(=O)N[C@H]1CC[C@@H](N(C)C(=O)c2ccc(-c3ccc(C#N)cc3F)cc2)C1`, the IC50 is under 0.3 µM.

For the compound `CCC(=O)N[C@H]1CC[C@@H](N(C)C(=O)c2ccc(-c3cccc4[nH]ncc34)cc2)C1`, the IC50 was under 0.3 µM.
